{
  "source": "patent US20180064712A1",
  "about": "“METHODS OF REDUCING IMMUNE CELL ACTIVATION AND USES THEREOF” (Washington University, priority 2016, published 2018)",
  "key": {"BM-Macs": {"test_system": "BM-Macs", "experiment": "intracellular Nos2 protein by flow cytometry", "type": "cell-based, mice", "settings": "stimulated BM-Macs, Mdivi-1 treated"}, "mitochondrial fission": {"test_system": "mitochondrial fission", "settings": "as disclosed in Cassidy-Stone et al. Developmental Cell 2008; cited from earlier work"}, "[1]": {"test_system": "Bone marrow derived macrophages (BM-Macs)", "experiment": "ECAR after LPS with or without IFN-γ stimulation with or without Mdivi-1, macrophages", "type": "cell-based, mice", "settings": "BM-Macs following stimulation with LPS with or without IFN-γ, 10 μM Mdivi-1", "text": "(§1) FIG. 6A, FIG. 6B, FIG. 6C, FIG. 6D, FIG. 6E, FIG. 6F, FIG. 6G, FIG. 6H, FIG. 6I, FIG. 6J, FIG. 6K, FIG. 6L, FIG. 6M, and FIG. 6N depict graphs and images showing that mitochondrial cristae remodeling signals metabolic pathway engagement. (FIG. 6A) Basal ECAR of OT-I Opa1^+/+ and Opa1^−/− IL-2 TE cells (left) and day 7 TE cells isolated ex vivo after adoptive transfer from LmOVA infection (right). Data combined from 2-3 experiments (*p=0.0412, ***p<0.0001). (FIG. 6B) OCR at baseline and after indicated drugs, representative of 2 experiments shown as mean±SEM, and (FIG. 6C) D-Glucose-^13C1,2 trace analysis of OT-I Opa1^+/+ and Opa1^−/− IL-2 TE cells. Each lane represents separate mice with a technical replicate. […] (FIG. 6K) IL-15 TM cell, (FIG. 6L, FIG. 6M) bone marrow-derived dendritic cell (BM-DCs) and macrophage (BM-Macs) % ECAR measured at baseline and after media, αCD3/CD28-conjugated bead, LPS, or LPS+IFN-γ injection as indicated. […]\n(§2) To more directly test this idea, we assessed ECAR of IL-15 TM cells that were stimulated with αCD3/28-conjugated beads in the presence or absence of Mdivi-1. […] We stimulated bone marrow derived dendritic cells (BM-DCs) and macrophages (BM-Macs) with lipolysaccharide (LPS) with or without interferon (IFN)-γ in the presence or absence of Mdivi-1 and measured ECAR. […]"}, "[2]": {"test_system": "bone marrow derived dendritic cells (BM-DCs)", "experiment": "ECAR after LPS stimulation with or without Mdivi-1, dendritic cells", "type": "cell-based, mice", "settings": "BM-DCs following stimulation with LPS, 10 μM Mdivi-1", "text": "as §1, §2"}, "IL-15 TM cells [3]": {"test_system": "IL-15 TM cells", "experiment": "ECAR after αCD3/28 bead stimulation with or without Mdivi-1", "type": "cell-based, mice", "settings": "αCD3/28-conjugated beads, 10 μM Mdivi-1 vs control", "text": "as §1, §2"}, "IL-15 TM cells [4]": {"test_system": "IL-15 TM cells", "experiment": "EM analysis of mitochondrial cristae after stimulation with or without Mdivi-1", "type": "cell-based, mice", "settings": "IL-15 TM cells activated with αCD3/CD28-conjugated beads or PMA and ionomycin, presence or absence of Mdivi-1", "text": "as §1, with “replicate. (FIG. 6D) EM analysis of mitochondrial cristae from TE and TM cells isolated after LmOVA infection and (FIG. 6E) in vitro cultured IL-2 TE and TM cells. Data representative of 2 experiments, scale bar=0.25 μm.” for “replicate.”\nTo more thoroughly examine this idea, we assessed cristae morphology in TE and TM cells by EM following TCR stimulation. […]"}},
  "data": [
    {"smiles": "COc1cc(-n2c(=S)[nH]c3ccccc3c2=O)c(Cl)cc1Cl", "note": "[Mdivi-1]", "values": [
      {"measurement": "nitric oxide synthase 2 (Nos2) protein expression", "setting": "BM-Macs", "result": "significantly decreased"},
      {"measurement": "efficacy relative to Mdivi-1 as mitochondrial fission inhibitor", "setting": "mitochondrial fission", "result": "full efficacy"},
      {"measurement": "aerobic glycolysis (ECAR)", "setting": "[1]", "result": "curtailed"},
      {"measurement": "aerobic glycolysis (ECAR)", "setting": "[2]", "result": "curtailed"},
      {"measurement": "aerobic glycolysis (ECAR)", "setting": "IL-15 TM cells [3]", "result": "did not robustly increase aerobic glycolysis"},
      {"measurement": "cristae morphology by EM", "setting": "IL-15 TM cells [4]", "result": "intermembrane space widening over time in control cells in comparison to drug treated cells"}
    ]}
  ]
}
